How the values were obtained:
[1] = biological target: T1, human α2β3γ2 GABAA receptor (Homo sapiens, UniProt P18507+P47869); assay: Two-electrode voltage-clamp in Xenopus oocytes, potentiation of GABA EC10 current, GABAA2; type: cell-based; details: percentage potentiation of GABA EC10 current divided by that of diazepam control
T1 construct: expressed in transfected cells; host or cells: Xenopus laevis oocytes injected with capped cRNA (α:β:γ 1:1:1)
Description: (§1) GABAA receptors were heterologously expressed in Xenopus oocytes by injecting cRNA corresponding to human α1, α2, α3, α5, β2, β3 and γ2 subunits of the GABAA receptor genes. The specific subunit combinations (subtypes) were as follows: α1β2γ2, α2β3γ2, α3β3γ2, and α5β3γ2. The EC10 of GABA was approximated for each cell. Stability of GABA-mediated (EC10) current was established. Modulatory effect of test compound was determined and compared across subtypes. […] Thus, the assay can characterize modulatory effects and determine subtype selectivity of test compounds on major subtypes of GABAA receptors.
(§2) Surgically removed ovarian lobes were teased out in OR2 solution (82 NaCl, 2.5 KCl, 5 HEPES, 1.5 NaH2PO4, 1 MgCl2, 0.1 EDTA, in mM, pH 7.4). The oocytes were defolliculated by incubation in 25 mL OR2 containing 0.2% collagenase 1A (SIGMA) two times for about 60 minutes on a platform shaker and stored in Leibovitz's L-15 medium. Oocytes were injected the following day in 0.5× Leibovitz's L-15 medium containing […] gentamycin, 10 units/ml penicillin, and […] streptomycin.
(§3) Capped cRNAs from the linearized vectors containing human α1, β2 and γ2 subunits of the GABAA receptor genes were mixed in ratio of 1:1:30. Oocytes were injected with 25-50 nL of mixed RNA with an appx molar ratio for α1, β2, and γ2 as 1:1:10. Oocyte recordings were done 2-10 days after injection. The same methods apply to subtypes derived from α2β2γ2, α3β3γ2, and α5β3γ2, except for 1:1:1 ratio was used for α, β, and γ subunits.
(§4) All measurements were done in a medium containing ND-96 (96 NaCl, 2 KCl, 1.8 CaCl2.2H2O, 1 MgCl2.6H2O, 5 HEPES, in mM, pH 7.5). Two-electrode voltage-clamp recording was carried out using OpusXpress amplifier (Axon Instruments, Foster City, Calif.), which allows simultaneous recording from 8 oocytes. Oocytes were impaled with two electrodes of 1-2 MΩ tip resistance when filled with 3M KCl. Recordings were begun when membrane potential became stable at potentials negative to −50-−60 mV. Membrane potential was held at −60 mV. […] The concentration of GABA corresponded to the EC10 value calculated for each oocyte. The modulator pulses started 30 s before the GABA pulse so as to allow preincubation with the modulator. A set of 3 pulses with just GABA without modulator was given prior to the modulator-containing pulses to define the baseline GABA response. Two oocytes per each experiment were dedicated to observe the effect of diazepam on GABA response to ensure the presence of γ2 subunit in the GABAA pentameric complex, which imparts diazepam sensitivity to the complex.
(§5) Current amplitude (i) was measured from baseline to peak using Clampfit (Axon Inst., Foster City, Calif.). Potentiation was calculated as percent change from the baseline GABA current flux 100×(imod/icontrol)−1) where imod=current mediated by modulator+GABA and icontrol=current mediated by GABA alone. […] Similarly, a value of −50% potentiation means the presence of modulator caused a 50% decrease in the control current. Various other data shown here were fitted and plotted using GraphPad Prism (GraphPad Software, Inc. San Diego, Calif.). The percentage potentiation was converted to relative potentiation by dividing it with percentage potentiation value obtained from the same assay with diazepam as a control.

[2] = biological target: T2, human α1β2γ2 GABAA receptor (Homo sapiens, UniProt P14867+P18507); assay: Two-electrode voltage-clamp in Xenopus oocytes, potentiation of GABA EC10 current, GABAA1; type: cell-based; details: percentage potentiation of GABA EC10 current divided by that of diazepam control
T2 construct: expressed in transfected cells; host or cells: Xenopus laevis oocytes injected with capped cRNA
Description: as §1, §2, §3, §4, §5

MT1 Receptor = MT1 Receptor (Homo sapiens, UniProt P48039); assay: MT1 Receptor Binding
[3] = biological target: human Melatonin receptor 1 (MT1) (Homo sapiens, UniProt P48039); assay: MT1 GTPγ35S-SPA Assay (Method II); details: compound used for normalization
Chain of human Melatonin receptor 1 (MT1) (P48039 whole entry): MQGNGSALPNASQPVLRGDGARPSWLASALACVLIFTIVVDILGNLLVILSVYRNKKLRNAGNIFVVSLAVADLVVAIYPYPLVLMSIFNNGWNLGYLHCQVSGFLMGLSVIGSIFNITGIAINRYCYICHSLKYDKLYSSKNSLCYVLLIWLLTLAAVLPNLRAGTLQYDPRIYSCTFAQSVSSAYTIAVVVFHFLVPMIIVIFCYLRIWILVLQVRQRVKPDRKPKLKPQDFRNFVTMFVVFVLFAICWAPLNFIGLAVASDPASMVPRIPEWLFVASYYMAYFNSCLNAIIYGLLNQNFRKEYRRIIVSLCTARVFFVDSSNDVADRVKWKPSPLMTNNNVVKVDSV
Description: Solid compounds were solubilized at 10 mM in DMSO; then 1:3 further diluted in DMSO in 96-well U-bottom plates using PlateMate on the assay day. 2 μl of diluted compounds were transferred to Opti-assay-plates.
The cell pellets were homogenized using Polytron; and the cell membranes were prepared fro GTPγS assay.
The cell pellets were homogenized with Polytron in ice-cold buffer: 20 mM HEPES, 3 mM MgCl2, 1 mM EGTA, pH7.4. (Freshly add protease inhibitor cocktail tables from Roche). The samples were centrifuged at 18,500 rpm for 30 mins at 4° C. in Sorvall SS-34 rotor. The membrane pellets were collected and washed with the ice-cold buffer. The samples were centrifuged at 18,500 rpm for 30 mins at 4° C. again. The membranes were resuspended in the ice-cold buffer with protease inhibitors. The protein concentration of the membrane was determined. The membranes were aliquoted and stored at −80° C.
Human MT1/HEK293 F membrane (10 μg/well) was mixed with WGA-SPA beads (300 μg/well) and GDP (10 μM) in certain volume of Lazareno assay buffer (20 mM HEPES, 100 mM NaCl, 10 mM MgCl2, pH7.4). […] The assay plates were measured in TopCount to capture the data within 4 hours. […]
Compounds were evaluated for their agonist potency (EC50) and efficacy (Emax). […] Compound's % activity was calculated according to the 100% and 0% activities defined on the same plate as the sample data. […]

T1 sequence (P47869 29-451): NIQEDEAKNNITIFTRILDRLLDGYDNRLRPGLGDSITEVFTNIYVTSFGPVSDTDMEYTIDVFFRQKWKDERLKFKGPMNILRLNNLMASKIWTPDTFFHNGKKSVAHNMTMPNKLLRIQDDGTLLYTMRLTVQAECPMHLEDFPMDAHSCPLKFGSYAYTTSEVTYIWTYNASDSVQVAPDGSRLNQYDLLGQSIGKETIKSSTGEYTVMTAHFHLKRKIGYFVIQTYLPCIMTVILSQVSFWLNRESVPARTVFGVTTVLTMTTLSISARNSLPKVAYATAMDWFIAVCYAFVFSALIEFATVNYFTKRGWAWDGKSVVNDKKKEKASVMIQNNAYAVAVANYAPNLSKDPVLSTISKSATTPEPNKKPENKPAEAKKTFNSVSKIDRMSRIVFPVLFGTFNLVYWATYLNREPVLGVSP
T1 sequence (P18507 40-475): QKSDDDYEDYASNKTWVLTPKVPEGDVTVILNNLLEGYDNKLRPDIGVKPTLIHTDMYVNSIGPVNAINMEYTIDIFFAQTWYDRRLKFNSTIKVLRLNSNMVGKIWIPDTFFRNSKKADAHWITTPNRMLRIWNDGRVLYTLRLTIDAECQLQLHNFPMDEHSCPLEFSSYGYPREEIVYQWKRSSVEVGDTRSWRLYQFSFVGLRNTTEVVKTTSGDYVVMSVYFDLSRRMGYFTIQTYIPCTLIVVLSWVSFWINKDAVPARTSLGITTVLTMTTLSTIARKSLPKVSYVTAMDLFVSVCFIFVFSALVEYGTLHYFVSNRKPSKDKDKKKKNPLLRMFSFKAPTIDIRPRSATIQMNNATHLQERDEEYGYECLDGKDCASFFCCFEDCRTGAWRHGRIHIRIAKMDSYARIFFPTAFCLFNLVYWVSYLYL
T1 sequence (P28472 26-473 partner): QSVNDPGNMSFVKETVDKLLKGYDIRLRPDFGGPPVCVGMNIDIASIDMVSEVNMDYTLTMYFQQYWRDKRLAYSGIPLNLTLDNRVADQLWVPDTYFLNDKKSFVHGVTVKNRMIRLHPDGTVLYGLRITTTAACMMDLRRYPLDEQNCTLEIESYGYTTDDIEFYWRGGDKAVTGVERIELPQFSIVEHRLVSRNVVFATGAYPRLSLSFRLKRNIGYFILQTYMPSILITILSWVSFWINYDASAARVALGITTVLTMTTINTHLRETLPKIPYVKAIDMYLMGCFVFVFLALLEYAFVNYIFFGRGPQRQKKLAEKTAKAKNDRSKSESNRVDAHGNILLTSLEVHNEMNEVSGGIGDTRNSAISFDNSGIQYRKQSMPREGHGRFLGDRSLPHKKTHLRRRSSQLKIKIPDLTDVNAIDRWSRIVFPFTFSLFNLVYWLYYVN
T2 sequence (P14867 28-456): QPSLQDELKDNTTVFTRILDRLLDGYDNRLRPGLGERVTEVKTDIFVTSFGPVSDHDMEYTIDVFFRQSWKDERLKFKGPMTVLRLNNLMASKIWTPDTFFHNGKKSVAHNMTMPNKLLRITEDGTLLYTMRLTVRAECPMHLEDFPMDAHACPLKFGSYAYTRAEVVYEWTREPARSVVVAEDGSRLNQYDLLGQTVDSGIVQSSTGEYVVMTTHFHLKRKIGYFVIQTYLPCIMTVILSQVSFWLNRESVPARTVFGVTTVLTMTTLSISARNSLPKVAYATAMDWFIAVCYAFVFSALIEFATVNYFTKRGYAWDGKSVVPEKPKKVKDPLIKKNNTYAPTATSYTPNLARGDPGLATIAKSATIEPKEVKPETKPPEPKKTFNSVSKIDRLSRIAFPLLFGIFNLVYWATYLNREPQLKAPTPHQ
T2 sequence (P47870 25-512 partner limits assumed): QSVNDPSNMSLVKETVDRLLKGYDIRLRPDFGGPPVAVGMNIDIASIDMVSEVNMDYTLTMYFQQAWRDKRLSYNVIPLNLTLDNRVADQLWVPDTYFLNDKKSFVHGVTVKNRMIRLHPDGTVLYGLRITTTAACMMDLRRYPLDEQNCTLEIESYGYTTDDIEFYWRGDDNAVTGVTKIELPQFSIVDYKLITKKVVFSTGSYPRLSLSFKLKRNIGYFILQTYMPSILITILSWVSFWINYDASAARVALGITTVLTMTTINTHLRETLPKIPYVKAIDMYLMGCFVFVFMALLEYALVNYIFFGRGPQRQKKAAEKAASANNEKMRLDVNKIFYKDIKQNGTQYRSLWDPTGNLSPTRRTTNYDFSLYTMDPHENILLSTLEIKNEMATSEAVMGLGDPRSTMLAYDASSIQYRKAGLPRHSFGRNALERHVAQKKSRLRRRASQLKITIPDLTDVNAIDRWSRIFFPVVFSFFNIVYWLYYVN
T2 sequence (P18507 40-475): as the sequence (P18507 40-475) above
Chain of MT1 Receptor (P48039 whole entry): as the sequence (P48039 whole entry) above

| SMILES | Relative Potentiation for GABAA2 [1] | Relative Potentiation for GABAA1 [2] | inhibition at 1 µM (MT1 Receptor) | EC100 concentration [3] |
| --- | --- | --- | --- | --- |
| CCCNC(=O)c1nnc2c(-c3cccc(C)c3C)c(F)ccc2c1N | 0.13 | 0.11 | – | – |
| COc1cccc(F)c1-c1cccc2c(N)c(C(=O)NC3CC3)nnc12 | 0.16 | −0.048 | – | – |
| CCCNC(=O)c1nnc2c(-c3cc(Cl)ccc3Cl)cccc2c1N | 0.21 | 0.12 | – | – |
| CCCNC(=O)c1nnc2c(-c3cc(F)ccc3C)c(F)ccc2c1N | 0.12 | 0.032 | – | – |
| CCCNC(=O)c1nnc2c(-c3cc(C)ccc3F)cccc2c1N | 0.37 | 0.095 | – | – |
| CCCNC(=O)c1nnc2c(-c3cnc(OC)nc3OC)c(F)ccc2c1N | 0.39 | 0.12 | – | – |
| CCCNC(=O)c1nnc2c(-c3cc(C)ccc3OC)c(F)ccc2c1N | 0.37 | 0.23 | – | – |
| CCCNC(=O)c1nnc2c(-c3cccc(OC)c3F)c(F)ccc2c1N | 0.23 | 0.05 | – | – |
| CCCNC(=O)c1nnc2c(-c3cc(F)ccc3OC)c(F)ccc2c1N | 0.22 | 0.085 | – | – |
| CCCNC(=O)c1nnc2c(-c3cc(F)ccc3F)cccc2c1N | 0.29 | −0.078 | – | – |
| CCCNC(=O)c1nnc2c(-c3ccccc3)c(F)ccc2c1N | 0.02 | −0.093 | – | – |
| CCCNC(=O)c1nnc2c(-c3cc(Cl)ccc3OC)cccc2c1N | 0.4 | 0.38 | – | – |
| CCCNC(=O)c1nnc2c(-c3cccnc3F)cccc2c1N | 0.17 | −0.083 | – | – |
| CCCNC(=O)c1nnc2c(-c3cccc(C#N)c3)cccc2c1N | 0.31 | 0.088 | – | – |
| CCCNC(=O)c1nnc2c(-c3cc(OC)ccc3Cl)c(F)ccc2c1N | 0.19 | 0.14 | – | – |
| CCCNC(=O)c1nnc2c(-c3cc(C)ccc3C)c(F)ccc2c1N | 0.28 | 0.21 | – | – |
| CCCNC(=O)c1nnc2c(-c3cc(C(F)(F)F)ccc3Cl)cccc2c1N | 0.59 | 0.47 | – | – |

| SMILES | Relative Potentiation for GABAA2 [1] | Relative Potentiation for GABAA1 [2] | inhibition at 1 µM (MT1 Receptor) | EC100 concentration [3] |
| --- | --- | --- | --- | --- |
| CCCNC(=O)c1nnc2c(-c3cc(F)c(OC)cc3F)cccc2c1N | 0.21 | 0.016 | – | – |
| CCCNC(=O)c1nnc2c(-c3ccncc3)cccc2c1N | 0.1 | −0.038 | – | – |
| CCCNC(=O)c1nnc2c(-c3ccc(C)nc3F)cccc2c1N | 0.27 | 0.053 | – | – |
| CCCNC(=O)c1nnc2c(-c3cnccc3C)cccc2c1N | 0.11 | 0.083 | – | – |
| CCCNC(=O)c1nnc2c(-c3ccc(F)cc3F)cccc2c1N | 0.12 | −0.088 | – | – |
| CCCNC(=O)c1nnc2c(-c3cc(OC)ccc3F)cccc2c1N | 0.32 | 0.26 | – | – |
| CCCNC(=O)c1nnc2c(-c3cccc(Cl)c3Cl)cccc2c1N | 0.053 | 0.067 | – | – |
| CCCCNC(=O)c1nnc2c(-c3cnccc3OC)cccc2c1N | 0.52 | 0.2 | – | – |
| CCCNC(=O)c1nnc2c(-c3cccnc3OC)cccc2c1N | 0.097 | 0.2 | – | – |
| COc1ccc(-c2cccc3c(N)c(C(=O)NC4CCC4)nnc23)c(OC)c1 | 0.243 | 0.091 | – | – |
| Cc1ccc(-c2cccc3c(N)c(C(=O)NC4CC4)nnc23)cn1 | 0.074 | −0.166 | – | – |
| CCNC(=O)c1nnc2c(-c3ccc(OC)cc3OC)cccc2c1N | 0.104 | −0.006 | – | – |
| CCCNC(=O)c1nnc2c(-c3cnccc3OC)cccc2c1N | – | – | 82% | – |
| COc1ccc2[nH]c(I)c(CCNC(C)=O)c2c1 [2-Iodomelatonin] | – | – | – | 3 nM |
| CCCNC(=O)c1nnc2c(-c3ccc4ccccc4c3)cccc2c1N [drawing 381] | 0.09 | 0.22 | – | – |
| CCCNC(=O)c1nnc2c(-c3c(Cl)cccc3OC)cccc2c1N [drawing 410] | 0.119 | −0.040 | – | – |
| CCCNC(=O)c1nnc2c(-c3c(F)cccc3OC)cccc2c1N [drawing 423] | – | – | 89% | – |

Reference: patent US20110144331A1, “Cinnoline Compounds for the Treatment of Anxiety, Cognitive and Mood Disorders” (AstraZeneca AB, priority 2005, published 2011)
